In patent US10738093B2, “Discovery of cationic nonribosomal peptides as Gram-negative antibiotics through global genome mining” (The Hong Kong University of Science and Technology, priority 2018, dated 2020):
In brackets after ≈: the same amount, converted by molar mass. Positions of bridges follow the written chain, without caps; N, C: chain ends. Non-standard residues stand in square brackets, D forms with d. Residues, ends and D or L forms follow the SMILES beside them. *: point of attachment. Octanoyl(7-Me) = CC(C)CCCCCC(=O)*; aThr = C[C@H](O)[C@H](N)C(=O)O; dOrn = NCCC[C@@H](N)C(=O)O; Orn = NCCC[C@H](N)C(=O)O

Legend:
[1] = test system: Saccharomyces cerevisiae VL-48; test: MIC, Saccharomyces cerevisiae; type: cell-based
Experimental: (§1) Minimum inhibitory concentration (MIC) was determined by broth microdilution according to CLSI guidelines. The test medium for most species was Mueller-Hinton broth (MHB). Bacteria were grown overnight to early stationary phase and adjusted in MHB to 5.0×10^5 colony-forming units per mL (c.f.u./mL) in the wells of 96-well microtiter plates, mixed with varying concentrations of test compounds and incubated at 37° C. for 24 h. […] MHBs containing 10% fetal bovine serum (Gibco), 21 mM MgCl, or 1.0 mg/ml LPS (lipopolysaccharides from Escherichia coli O55:B5, Sigma-Aldrich) were used to test their inhibitory effects.

[2] = test system: E. coli ATCC 25922; test: Neutropenic mouse thigh infection model; type: in vivo, Escherichia coli; settings: brevicidine 30 mg/kg or laterocidine 15 mg/kg, 2 times, after 26 h
Experimental: In vivo activities of brevicidine and laterocidine were tested using the mouse thigh infection model. Animal studies were performed by Pharmacology Discovery Services Taiwan Ltd. (Taipei, Taiwan) in general accordance with standard guidelines on animal welfare in an AAALAC-accredited facility. The protocol was reviewed and approved by the Institutional Animal Care and Use Committee. Groups of five female specific-pathogen-free ICR (CD-1) mice weighing 22±2 g (˜5 weeks of age) were used. Animals were immunosuppressed with two intraperitoneal injections of cyclophosphamide, the first at 150 mg/kg 4 d before infection (day −4) and the second at 100 mg/kg 1 d before infection (day −1). On day 0, animals were inoculated intramuscularly (0.1 ml/thigh) in the right thigh with an E. coli ATCC 25922 suspension. Vehicle (10% DMSO, 1% Tween 80, 0.9% NaCl) and antibiotics were then subcutaneously injected 2 h and 8 h later. Due to limited amount of compounds 1-2, only one concentration of 1(30 mg/kg) or 2 (15 mg/kg) was used in this study. At 26 h after inoculation, animals were euthanized by CO2 asphyxiation before the muscle of the right thigh was harvested from each test animal. The removed muscle was homogenized in 5 mL of PBS, pH 7.4, with a polytron homogenizer. Homogenates in the amount of 0.1 mL were used for serial tenfold dilutions and plated onto a nutrient agar medium for colony count (c.f.u./g) determination.

[3] = test system: E. cloacae NRRL-B-425; type: cell-based, Enterobacter cloacae; settings: NRRL-B-425
Experimental: as §1

[4] = test system: E. coli Top10; test: Bacterial growth kinetics; type: cell-based, Escherichia coli; settings: E. coli cells exposed to compound
Experimental: A fresh single colony of E. coli Top10 was inoculated into MHB (5 mL) and grown with shaking at 225 rpm overnight. The bacteria were diluted to 1×10^5 c.f.u./mL in fresh MHB, grown […] to early log-phase (OD=0.15) and treated with the antibiotics of interest in the wells of a 96-well plate. Final antibiotic concentrations varied from 1×MIC to 8×MIC. The plate was then incubated at 30° C. overnight, with OD 600 measurements taken every 30 seconds.

[5] = test system: E. coli Top10; type: cell-based, Escherichia coli; settings: Top10
Experimental: as §1

[6] = test system: Colistin-resistant E. coli (E. coli ATCC 25922 carrying mcr-1); type: cell-based, Escherichia coli
Experimental: as §1

[7] = test system: E. coli Top10; test: Time-kill assay; type: cell-based, Escherichia coli
Experimental: An overnight culture of E. coli Top10 or Pseudomonas aeruginosa PAO1 cells was diluted 1:10,000 in MHB and incubated at 37° C. with agitation at 180 rpm for 2 h (early exponential). The bacteria were then challenged with antibiotics at 10×MIC, brevicidine (20 μg/ml), laterocidine (20 μg/ml) or polymyxin B (10 μg/ml) at room temperature without shaking. An untreated sample of cells was used as a negative control. At intervals, 10 μL aliquots were removed, centrifuged at 10,000 g for 1 min and resuspended in 1.0 mL of sterile PBS. Tenfold-serially-diluted suspensions were plated on MHB agar plates and incubated at 37° C. overnight. Colonies were counted and the number of c.fu. per mL was calculated. For analysis of lysis, 300 μL of culture (OD600=1.0) were treated with 10×MIC of antibiotics for 24 h. Experiments were performed in triplicate.

[8] = test system: K. pneumoniae NRRL-B-3521; type: cell-based, Klebsiella pneumoniae; settings: NRRL-B-3521
Experimental: as §1

[9] = test system: Bacillus subtilis 168; type: cell-based; settings: 168
Experimental: as §1

[10] = test system: Klebsiella pneumoniae NRRL-B-408; type: cell-based; settings: NRRL-B-408
Experimental: as §1

[11] = test system: Pseudomonas aeruginosa PAO1; type: cell-based; settings: PAO1
Experimental: as §1

[12] = test system: Candida albicans; type: cell-based
Experimental: as §1

[13] = test system: Enterobacter cloacae NRRL-B-413; type: cell-based; settings: NRRL-B-413
Experimental: as §1

[14] = test system: Methicillin-resistant Staphylococcus aureus ATCC 43300; type: cell-based
Experimental: as §1

[15] = test system: Acinetobacter baumannii; type: cell-based
Experimental: as §1

[16] = test system: Escherichia coli ATCC 25922; test: microbe, parasite or virus in culture; type: cell-based; settings: ATCC 25922
Experimental: as §1

[17] = test system: P. aeruginosa PAO1; test: Atomic force microscopy of treated P. aeruginosa; type: cell-based, Pseudomonas aeruginosa
Experimental: (§2) The samples were then centrifuged at 8000 g for 10 min at 4° C., and the pellet was washed twice in 100 lpL of apyrogenic water. The bacteria resuspended in 50 μL of apyrogenic water were applied to mica disks and dried overnight at 28° C. before imaging. Atomic force micrographs were recorded on a Veeco Mulitmode AFM with NanoScope III controller operating in contact mode. The data were analyzed with NanoScope Analysis software v.1.40 (Veeco, USA). Scans were acquired at 25° C. at the rates of 1.0 Hz and 256 samples per line resolution. Downstream image processing and analysis were performed using NanoScope software (Bruker). Height images were flattened to compensate for cell curvature, and topographical sections were used to generate two-dimensional reconstructions of surface texture.

[18] = test system: E. coli ATCC 25922; test: Atomic force microscopy of treated E. coli; type: cell-based, Escherichia coli; settings: E. coli ATCC25922, 10×MIC
Experimental: as §2

[19] = test system: Escherichia coli ATCC 25922; test: Resistance acquisition during serial passaging; type: cell-based; settings: serial passaging at subinhibitory concentrations over 30 days
Experimental: Escherichia coli ATCC 25922 was inoculated into MHB overnight at 37° C. with continuous shaking. Cells were diluted 10,000 times in MHB to about 1×10^6 c.f.u./mL. […] Plates with bacteria were incubated at 37° C. without shaking. […] This process was repeated for 30 d, and the final MIC was confirmed by the same antibacterial assay described above. The experiment was performed in quadruplicate, and on each day, the sample that developed the highest resistance was measured to plot the curve.

CC[C@H](C)[C@@H]1NC(=O)[C@@H](NC(=O)[C@H](Cc2c[nH]c3ccccc23)NC(=O)[C@@H](CCCN)NC(=O)CNC(=O)[C@H](CCCN)NC(=O)[C@@H](CCCN)NC(=O)[C@@H](Cc2c[nH]c3ccccc23)NC(=O)[C@@H](Cc2ccc(O)cc2)NC(=O)[C@@H](CO)NC(=O)CCCCCC(C)C)[C@H](C)OC(=O)CNC(=O)CNC(=O)[C@H](CC(N)=O)NC1=O [Compound 2, 7-Methyl-Octanoyl-D-Ser-D-Tyr-D-Trp-D-Orn-Orn-Gly-D-Orn-Trp-Thr-Ile-Asn-Gly-Gly (cyclized via lactone formation between Thr and the C-terminus)] ({Octanoyl(7-Me)}-[dS][dY][dW][dOrn][Orn]G[dOrn]W[aThr]INGG; ester 9-C)
MIC ([1]; Saccharomyces cerevisiae): >64 µg/mL
MIC Sc ([1]; Table 2, Saccharomyces cerevisiae VL-48): ND (ND >64 μg/ml)
bactericidal efficacy in mouse thigh infection (viable bacteria) [2]: reduced numbers of viable bacteria
MIC [3]: 3 µg/mL (≈ 1.87 µM)
time of growth at a reduced rate before steady decrease in cell count [4]: 30 min
MIC [5]: 2 µg/mL (≈ 1.25 µM)
MIC [6]: 2 µg/mL (≈ 1.25 µM)
time of exposure to significant reduction of viable cells ([7]; 10 times the MIC): 30 min
time of exposure to slightly reduced cell viability ([7]; 10 times the MIC): 15 min
bactericidal against E. coli ([7]; growth kinetics, time-kill assay and lysis assay): bactericidal
MIC [8]: 4 µg/mL (≈ 2.49 µM)
MIC [9]: 32 µg/mL (≈ 19.9 µM)
MIC Bs [9]: 32 µg/mL (≈ 19.9 µM)
MIC [10]: 4 µg/mL (≈ 2.49 µM)
MIC [11]: 2 µg/mL (≈ 1.25 µM)
MIC Pa [11]: 2 µg/mL (≈ 1.25 µM)
MIC [12]: >64 µg/mL
MIC Ca ([12]; Table 2, Candida albicans): ND (ND >64 μg/ml)
MIC [13]: 2 µg/mL (≈ 1.25 µM)
MIC En [13]: 2 µg/mL (≈ 1.25 µM)
MIC ([14]; ATCC 43300): >64 µg/mL
MIC MRSA ([14]; Table 2, Methicillin-resistant Staphylococcus aureus ATCC 43300): ND (ND >64 μg/ml)
MIC [15]: 4 µg/mL (≈ 2.49 µM)
MIC Ab [15]: 4 µg/mL (≈ 2.49 µM)
MIC [16]: 2 µg/mL (≈ 1.25 µM)
MIC Ec [16]: 2 µg/mL (≈ 1.25 µM)
cell morphology by AFM [17]: lost their regular rod-like shape and became lumpy and rugged
cell morphology by AFM [18]: lost their regular rod-like shape and became lumpy and rugged
development of resistance [19]: development of resistance was not observed
